“And” between values parts separate entries of the source, which are not always exact repeats. Identical values can stand only once.
Structure (SMILES) | melting point
Cc1ccc([N+](=O)[O-])c(O)c1 [5-methyl-2-nitrophenol] | 55 °C
CC1=CC(c2c(C)cc(C)cc2C)N=N1 (stereo not given) [5-methyl-3-(2,4,6-trimethylphenyl)-1H-pyrazole] | 129 °C
Cc1ccc2sccc2c1 [5-methylbenzo[b]thiophene] | 34 °C
Cc1cc(C#N)cc(C#N)c1 [5-methylisophthalonitrile] | 164 °C
Cc1cncc(C(=O)O)c1 [5-methylnicotinic acid] | 213 °C
CC(O)C1(O)CCC2C3CCC4(C)CC(O)CCC4(C)C3CCC21C (stereo not given) [5-methylpregnane-3,17,20-triol] | 219 °C
NNC(=O)c1ccc([N+](=O)[O-])o1 [5-nitro-2-furohydrazide] | 171 °C
O=[N+]([O-])c1ccc2[nH]ccc2c1 [5-nitroindole] | 141 °C
O=C(O)c1cc([N+](=O)[O-])ccc1O [5-nitrosalicylic acid] | 232 °C
CCCCC(=O)CCCC [5-nonanone] | -50 °C
O=C(O)CCCCc1ccccc1 [5-phenylvaleric acid] | 59 °C
CC(C)CCC[C@@H](C)[C@H]1CC[C@H]2[C@@H]3CC[C@H]4C[C@@H](O)CC[C@]4(C)[C@H]3CC[C@]12C [5alpha-cholestan-3beta-ol] | 142 °C
Brc1ccc(-c2cccc(Br)n2)cn1 [6,6'-dibromo-2,3'-bipyridine] | 168 °C
NCCCCCCO [6-Aminohexan-1-ol] | 56 °C
Nc1ncc2ncn(COCCO)c2n1 [6-Deoxyacyclovir] | 188 °C and 189 °C
O=C(Nc1ccc2cc(OC(=O)c3ccccc3)ccc2c1)c1ccccc1 [6-[(phenylcarbonyl)amino]naphthalen-2-yl benzoate] | 227 °C
CC(=O)c1ccc2c(c1)CCCC2 [6-acetyl-1,2,3,4-tetrahydronaphthalene] | -21 °C
NCCCCCC(=O)O [6-aminocaproic acid] | 205 °C
Nc1c(Cl)cc([N+](=O)[O-])cc1[N+](=O)[O-] [6-chloro-2,4-dinitroaniline] | 157 °C
Fc1nc(Cl)c2nc[nH]c2n1 [6-chloro-2-fluoropurine] | 152 °C
OB(O)c1ccc(Cl)nc1 [6-chloropyridine-3-boronic acid] | 156 °C
Clc1ccc2ncccc2c1 [6-chloroquinoline] | 35 °C
Fc1ccc2cc[nH]c2c1 [6-fluoroindole] | 76 °C
CC(C)CCCC(C)C1CCC2C3CC(O)C4=CC(=O)CCC4(C)C3CCC12C (stereo not given) [6-hydroxycholest-4-en-3-one] | 155 °C
COc1ccc2cc[nH]c2c1 [6-methoxyindole] | 92 °C
Cc1cccc(C(=O)O)n1 [6-methylpyridine-2-carboxylic acid] | 129 °C
O=c1[nH]c2ccc([N+](=O)[O-])cc2o1 [6-nitro-2(3h)-benzoxazolone] | 246 °C

Structure (SMILES) | melting point
CCCCCC(=O)CCCCC [6-undecanone] | 15 °C
Cc1cc(=O)oc2c(O)c(O)ccc12 [7,8-dihydroxy-4-methylcomarin] | 243 °C
O=C(CBr)c1ccc2c(c1)OCCCO2 [7-bromoacetyl-3,4-dihydro-1,5-benzodioxepin] | 76 °C
[O-][n+]1ccc2ccc(Br)cc2c1 [7-bromoisoquinoline n-oxide] | 180 °C
Cc1cc(O)n2ncnc2n1 [7-hydroxy-5-methyl[1,2,4]triazolo[1,5-a]pyrimidine] | 283 °C
COc1ccc2c(C)cc(=O)[nH]c2c1 [7-methoxy-4-methyl-2(1h)-quinolinone] | 206 °C
Cc1cccc2cc[nH]c12 [7-methylindole] | 84 °C
CC1(C)c2ccccc2Oc2ccccc21 [9,9-dimethylxanthene] | 42 °C
OC1c2ccccc2-c2ccccc21 [9-fluorenol] | 156 °C
O=C1c2ccccc2-c2ccccc21 [9-fluorenone] | 83 °C
Cc1c2ccccc2cc2ccccc12 [9-methylanthracene] | 78 °C and 80 °C
c1ccc2c(c1)Cc1ccccc1O2 [9H-Xanthene] | 101 °C
CCCCCCCCCCC#CC#CCCCCCCCCC(=O)O [10,12-tricosadiynoic acid] | 57 °C
CC(=O)OC1CCC2(C)C(CCC3C4=C(CCC32)C(C)(C#Cc2ccccc2)CC4)C1 (stereo not given) [10,17-dimethyl-17-(phenylethynyl)gon-13-en-3-yl acetate] | 136 °C
OCCCCCCCCCCc1ccccc1 [10-Phenyldecan-1-ol] | 36 °C
C[C@]12CCC(=O)CC1CCC1=C2CC[C@@H]2C(=O)CC[C@@H]12 (stereo not given in full) [10-methylgon-8-ene-3,17-dione] | 138 °C
C[C@]12CCC(=O)C=C1CC[C@@H]1[C@@H]2C(O)C[C@@]2(C)[C@H]1CC[C@]2(O)C(=O)CO (stereo not given in full) [11,17,21-Trihydroxypregn-4-ene-3,20-dione] | 223 °C
CCCCCCCCCCC(O)CCCCCCCCCC [11-heneicosanol] | 72 °C
CCCCCCC(O)CCCCCCCCCCC(=O)O (stereo not given) [12-hydroxystearic acid] | 75 °C
CC12CCC(=O)CC1CCC1C2CCC2(C)C(=O)CCC12O (stereo not given) [14-hydroxyandrostane-3,17-dione] | 199 °C
CC(=O)OC1CCC2(C)C(=CCC3C2CCC2(C)C3CCC2(O)C#Cc2ccccc2)C1 (stereo not given) [17-hydroxy-21-phenylpregn-5-en-20-yn-3-yl acetate] | 148 °C
CC(=O)OC1CCC2(C)C(CCC3C2CCC2(C)C3CCC2(O)CCc2ccccc2)C1 (stereo not given) [17-hydroxy-21-phenylpregnan-3-yl acetate] | 138 °C
CC12CCC3C(CCC4CC(=O)CCC43C)C1CCC2O (stereo not given) [17-hydroxyandrostan-3-one] | 121 °C
CC1=CCC2C3CCC4CC(=O)CCC4(C)C3CCC12C (stereo not given) [17-methylandrost-16-en-3-one] | 141 °C
O=C4\C=C3/[C@]([C@H]2CC[C@]1([C@@H](CC[C@@]1(O)C)[C@@H]2CC3)C)(C)CC4 [17-methyltestosterone] | 164 °C
CCCOC1CCC2C3CCC4=CC(O)CCC4(C)C3CCC12C (stereo not given) [17-propoxyandrost-4-en-3-ol] | 125 °C
C#C[C@]1(O)CC[C@H]2[C@@H]3CCc4cc(O)ccc4[C@H]3CC[C@@]21C [17alpha-ethynylestradiol] | 144 °C

Structure (SMILES) | melting point
CC12CCCCC1CCC1C2CCC2(C)C1CCC2(O)C#Cc1ccccc1 (stereo not given) [21-phenylpregn-20-yn-17-ol] | 103 °C
C[C@]12CCC(O)CC1CC[C@@H]1[C@@H]2CC[C@@]2(C)[C@H]1CC[C@]2(O)C#Cc1ccccc1 (stereo not given in full) [21-phenylpregn-20-yne-3,17-diol] | 122 °C
O=C(CCc1ccccc1)/C(=N/O)c1ccccc1 [(1E)-1,4-diphenylbutane-1,2-dione 1-oxime] | 130 °C
CC(=O)O/C(=C\C=C(\OC(C)=O)c1ccccc1)c1ccccc1 [(1E,3Z)-4-(acetyloxy)-1,4-diphenylbuta-1,3-dien-1-yl acetate] | 126 °C
O=C(O)[C@@H]1[C@@H]2CC[C@@H](C2)[C@@H]1C(=O)O [(1R,2R,3S,4S)-Bicyclo[2.2.1]heptane-2,3-dicarboxylic acid] | 160 °C
Nc1ccccc1C(O)(c1ccccc1)c1ccccc1 [(2-aminophenyl)(diphenyl)methanol] | 122 °C
CC(C)/C=N/Nc1ccc([N+](=O)[O-])cc1[N+](=O)[O-] [(2E)-1-(2,4-Dinitrophenyl)-2-(2-methylpropylidene)hydrazine] | 186 °C
O=C(/C=C/c1ccc(-c2ccccc2)o1)c1ccco1 [(2E)-1-(2-furyl)-3-(5-phenyl-2-furyl)prop-2-en-1-one] | 100 °C
O=C(O)/C(=C/c1ccccc1)c1ccccc1 [(2E)-2,3-Diphenylacrylic acid] | 173 °C
O/N=C(\c1ccccc1)C(O)c1ccccc1 (stereo not given) [(2E)-2-(Hydroxyimino)-1,2-diphenylethanol] | 154 °C
C/C(=C\C(=O)O)c1ccc(C)cc1 [(2E)-3-(4-methylphenyl)but-2-enoic acid] | 135 °C
O=C(/C=C/c1ccc(Br)o1)c1ccco1 [(2E)-3-(5-bromofuran-2-yl)-1-furan-2-ylprop-2-en-1-one] | 77 °C
CN(C)c1ccc(/C=C/C=O)cc1 [(2E)-3-[4-(Dimethylamino)phenyl]acrylaldehyde] | 135 °C
O=C(/C=C/c1ccc(-c2cccc([N+](=O)[O-])c2)o1)c1ccccc1 [(2E)-3-[5-(3-Nitrophenyl)-2-furyl]-1-phenylprop-2-en-1-one] | 147 °C
O=C(/C=C/c1ccc(-c2ccc(Br)cc2)o1)c1ccccc1 [(2E)-3-[5-(4-Bromophenyl)-2-furyl]-1-phenylprop-2-en-1-one] | 129 °C
C/C(=C\C=C\c1ccccc1)C(=O)OC(=O)/C(C)=C/C=C/c1ccccc1 [(2E,4E)-2-methyl-5-phenylpenta-2,4-dienoic anhydride] | 113 °C
O=C(O)[C@H](O)[C@@H](O)C(=O)O [(2R,3R)-2,3-Dihydroxysuccinic acid] | 171 °C
O=C(O)[C@@H](O)[C@H](O)C(=O)O [(2S,3S)-2,3-Dihydroxysuccinic acid] | 173 °C
COC1=C(OC)/C(=C/C=O)OC1=O [(2Z)-(3,4-dimethoxy-5-oxofuran-2(5H)-ylidene)ethanal] | 61 °C
O=C(O)/C=C\C(=O)O [(2Z)-But-2-enedioic acid] | 138 °C
CC(=O)/C(C)=N\O [(3Z)-3-(Hydroxyimino)butan-2-one] | 75 °C
CC(C)CCC[C@@H](C)[C@H]1CC[C@H]2[C@@H]3CC=C4C[C@@H](O)CC[C@]4(C)[C@H]3CC[C@]12C [(3beta)-Cholest-5-en-3-ol] | 149 °C
Cc1ccc(C(=O)c2ccccc2)cc1 [(4-Methylphenyl)(phenyl)methanone] | 57 °C
BrCCCCOc1ccccc1 [(4-bromobutoxy)benzene] | 42 °C
N#CCc1c[nH]cn1 [(4-imidazolyl)acetonitrile] | 137 °C
O=C(O)CSc1nnc(S)s1 [(5-mercapto-1,3,4-thiadiazol-2-ylthio)acetic acid] | 167 °C
